Consider 8 molecules from patent EP3212211B1, “MILK PROTEIN HYDROLYSATE FOR USE IN THE TREATMENT OF DIARRHOEA” (Laboratorios Ordesa, S.l., priority 2014, dated 2016).

Several values for one entry are separate records, joined by “and”; a condition that tells them apart may be missing. Equal values may be shown once. No end group written: not given here.

The term IC50 denotes the concentration needed to halve the response being measured. For orientation: inhibition means the change of the read-out against control, counted positive when it falls.

Data set [1] has as its target T1, recombinant human neprilysin (rhNeprilysin) (Homo sapiens, UniProt P08473).
T1 construct: purchased R&D Systems, Inc
Description: neprilysin inhibition, fluorogenic enzymatic (FRET) assay. Type of data set: biochemical. Particulars: for IC50: pure substance, 37 °C. The method, then:
All samples are assayed in triplicate.

In the next data set the test system is rats. Description: intestine motility test (activated charcoal transit). Type of data set: in vivo. Particulars: for intestinal transit in relation to RS group: product 30 minutes before charcoal, H1, H2 8.5 g/Kg, P+ (LW) 0.8 g/Kg, L 6.5 g/Kg, loperamide 2 mg/Kg p.o., read 20 minutes after charcoal. The procedure: Intestine motility was evaluated in rats as in Example 7. The groups were coincident (n=7) except of the omission of R group and that only P^+ (LW 0.8 g/Kg) was tested. The control group included rats treated with loperamide (Lop) at a dose of 2 mg/Kg, and rats treated with the vehicle (water) and with non-hydrolysed cow milk (L group). Loperamide is an anti-diarrhoeic drug that delays intestinal transit and it acts as a positive control in this experiment.
After 30 minutes of the administration of the products under study (P+, L, Lop, H1, H2, water) intestine transit was determined by administering 1 ml of a suspension at 1 % w/v of activated charcoal (Sigma-Aldrich®) in arabic gum (Acofar®, 5 %).
20 minutes later, animals were sacrificed by exsanguination and small intestine was extracted (from pilor to ileocecal). Small intestine was longitudinally disposed over a clean surface. Intestinal distance of charcoal was measured as well as the total intestine length. Results for each animal were expressed as distance of charcoal in relation to intestine length, in percentage form.
Statistical analysis was performed by PASW®Statistics 18 software. Global comparative analysis between groups was performed with Kruskal-Wallis test and further with the non-parametric U test of Mann-Whitney. It was stablished as meaningful level a p value of p<0.05.

For data set [2] the following is noted: cited from earlier work.
The subject of a further data set is female Wistar rats. In words: castor oil induced acute diarrhoea in rats. Type of data set: in vivo. Particulars: p.o. 1 h before castor oil, H1, H2 8.5 g/Kg. The procedure:
The effect of the hydrolysates of the invention was tested in a model of induced acute diarrhoea. For this test, female Wistar rats were used (8 weeks old). Animals were provided with 7 weeks by Harlan (Barcelona, Spain) and they rested in the Animal Experimental Service of Facultad de […] de Barcelona (UB) under controlled temperature and humidity conditions with a light:dark cycle of 12 h:12 h with water and food ad libitum. The assay has been conducted under institutional guidelines for animal experimentation established by the Ethical Commitment of Animal Experimentation in the Universidad de Barcelona (CEEA-UB). […] Haematocrit was also determined as basal value before inducing diarrhoea. […] Although the weight was reduced during the assay, the loss was detected in all groups, and it is hypothesized due to the starving period. No differences among groups were detected in the haematocrit. […] The following variables were determined: number of defecations, type (consistency, colour, form, presence or absence of mucus), punctuation (0-4 according to a diarrhoea index), presence or absence of diarrhoea. There were also determined the diarrhoea index (ID), diarrhoea incidence, the percentage of diarrhoeic defecations, as well as the severity of diarrhoeic process. […] The percentage of diarrhoeic defecations (ID≥2) was also determined for each group. […]

Data set [3] deals with Angiotensin Converting Enzymes (ACE). The settings on record: ACE inhibition; cited from earlier work.
For data set [4], the target named is recombinant human neprilysin (human, UniProt P08473 53-750). Description: cell-based or functional assay.
recombinant human neprilysin, sequence (P08473 53-750 limits assumed): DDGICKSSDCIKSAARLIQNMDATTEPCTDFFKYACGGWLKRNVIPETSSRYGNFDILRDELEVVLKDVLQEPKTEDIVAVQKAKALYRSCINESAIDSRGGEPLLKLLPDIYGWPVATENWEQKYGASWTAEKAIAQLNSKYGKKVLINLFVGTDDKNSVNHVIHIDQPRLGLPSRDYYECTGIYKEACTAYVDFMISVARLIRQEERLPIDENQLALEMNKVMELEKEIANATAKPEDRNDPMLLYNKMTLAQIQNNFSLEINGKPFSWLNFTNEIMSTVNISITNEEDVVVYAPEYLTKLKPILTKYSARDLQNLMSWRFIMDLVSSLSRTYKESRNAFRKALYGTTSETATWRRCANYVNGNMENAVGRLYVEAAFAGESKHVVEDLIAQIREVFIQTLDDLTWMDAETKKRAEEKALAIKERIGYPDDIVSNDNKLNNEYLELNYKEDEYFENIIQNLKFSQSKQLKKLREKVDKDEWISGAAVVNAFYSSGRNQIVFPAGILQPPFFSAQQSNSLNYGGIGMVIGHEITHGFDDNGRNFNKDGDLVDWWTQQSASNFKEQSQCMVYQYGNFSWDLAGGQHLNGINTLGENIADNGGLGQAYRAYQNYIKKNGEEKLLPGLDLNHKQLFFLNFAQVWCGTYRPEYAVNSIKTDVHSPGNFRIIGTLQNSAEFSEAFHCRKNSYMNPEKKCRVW

T1 sequence (P08473 whole entry): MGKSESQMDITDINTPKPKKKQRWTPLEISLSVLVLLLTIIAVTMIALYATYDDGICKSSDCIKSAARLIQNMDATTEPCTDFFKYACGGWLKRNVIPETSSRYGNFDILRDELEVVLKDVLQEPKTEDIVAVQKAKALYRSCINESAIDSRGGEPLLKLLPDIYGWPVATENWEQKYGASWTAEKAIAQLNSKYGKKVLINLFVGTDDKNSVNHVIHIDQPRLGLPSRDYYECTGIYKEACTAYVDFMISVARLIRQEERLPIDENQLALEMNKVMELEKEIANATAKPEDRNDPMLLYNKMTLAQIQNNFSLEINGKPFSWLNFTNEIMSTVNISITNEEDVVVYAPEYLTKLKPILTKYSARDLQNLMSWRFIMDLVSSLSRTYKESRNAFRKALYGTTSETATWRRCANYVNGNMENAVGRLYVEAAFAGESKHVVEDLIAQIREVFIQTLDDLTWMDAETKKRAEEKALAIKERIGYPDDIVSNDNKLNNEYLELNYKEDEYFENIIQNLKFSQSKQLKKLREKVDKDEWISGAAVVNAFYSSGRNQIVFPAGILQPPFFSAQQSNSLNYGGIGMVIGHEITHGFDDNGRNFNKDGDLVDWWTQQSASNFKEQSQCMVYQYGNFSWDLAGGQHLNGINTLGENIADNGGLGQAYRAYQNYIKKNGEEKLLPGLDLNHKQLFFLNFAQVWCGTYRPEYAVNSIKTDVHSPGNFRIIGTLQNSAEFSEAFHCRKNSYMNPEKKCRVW

`CC(C)C[C@H](N)C(=O)N[C@@H](Cc1c[nH]c2ccccc12)C(=O)O` [LW]: the IC50 in data set [1] and in data set [1] (dilutions in deionized water) was 84.8 µM throughout. Further, the “intestinal transit in relation to RS group” value in the data set on rats was “does not modify intestinal transit”.
For the molecule `CN(C)C(=O)C(CCN1CCC(O)(c2ccc(Cl)cc2)CC1)(c1ccccc1)c1ccccc1` [loperamide], in the data set with rats (2 mg/Kg p.o., 30 minutes before charcoal, p<0.01 vs RS), the “intestinal transit: distance of charcoal in relation to total small intestine length (D/L)” value is on record as 37.8 ± 3.49%. For the same molecule, the “inhibition of intestinal transit” value in the data set with rats (2 mg/Kg p.o., versus RS group, p<0.01) was determined as 37%. Further, the “intestinal transit in relation to RS group” value with rats is given as “delayed intestinal transit”.
Consider `CC(=O)SCC(Cc1ccccc1)C(=O)NCC(=O)OCc1ccccc1` (centres unmarked) [racecadotril], for which the water solubility result in data set [2] is reported as “poor water solubility”. The “severity of diarrhoeic process (AUC of the diarrhoea index)” value in the data set on female Wistar rats (LW 0.8 g/Kg, racecadotril 40 mg/Kg, L 6.5 g/Kg, 0-3 h and 0-8 h PI (FIG. 8), versus RD group) is “milder severity of diarrhoeic process than RD group”. The “percentage of diarrhoeic defecations (ID≥2) in relation to the total of defecations” value in the data set on female Wistar rats (R 40 mg/Kg, 0-3 h and 0-8 h PI (FIG. 9)) is “lower in both studied period”.
Turning to IPP, the IC50 in data set [3] was 5 to 9 µM.
Turning to VLGPVRGPFP [SEQ ID NO: 1], in data set [1] (peptide concentration 1.26 x10^-3 M, 40 minutes at 37 °C), the inhibition at 1260 µM was 64.8%. Also, the inhibition at 126 µM in data set [1] (peptide concentration 1.26 x10^-4 M, 40 minutes at 37 °C) is 13.2%. The inhibition at 12.6 µM in data set [1] (peptide concentration 1.26 x10^-5 M, 40 minutes at 37 °C) is 1.49%. The inhibition at 315 µM in data set [1] (peptide concentration 3.15 x10^-4 M, 40 minutes at 37 °C) was 29.5%. Further, in data set [1] (peptide concentration 6.30 x10^-4 M, 40 minutes at 37 °C), the inhibition at 630 µM amounted to 46.6%. Also, the inhibition at 63 µM in data set [1] (peptide concentration 6.30 x10^-5 M, 40 minutes at 37 °C) was determined as 7.37%. In data set [1] (peptide concentration 9.00 x10^-5 M, 40 minutes at 37 °C), the inhibition at 90 µM is 9.41%.
Regarding VPP, in data set [3], the IC50 was 5 to 9 µM.

B1: peptide of SEQ ID NO: 1 (VLGPVRGPFP) (peptide)
peptide: VLGPVRGPFP
For B1, the “IC50 of neprilysin inhibition (fluorogenic enzymatic assay)” value in data set [4] was 713 µM.

B2: peptide LW (dipeptide of formula (I) X1W, wherein X1 is leucine) (peptide)
peptide: LW
As to B2, the “IC50 of neprilysin inhibition (fluorogenic enzymatic assay, FRET substrate Mca-…[Dnp]-OH)” value in data set [4] was 0.0269 mg/ml and 84.8 µM.
